Source: ChEMBL document CHEMBL1137391, “Synthesis and evaluation of indenoisoquinoline topoisomerase I inhibitors substituted with nitrogen heterocycles” (2006)

Tests used:
Format in all cases: functional
[1] = tested on: HCT-116; test: Cytotoxicity against human HCT116 cell line
[2] = tested on: DU-145; test: Cytotoxicity against human DU145 cell line
[3] = tested on: HOP-62; test: Cytotoxicity against human HOP62 cell line
[4] = tested on: UACC-62; test: Cytotoxicity against human UACC62 cell line
[5] = tested on: SF-539; test: Cytotoxicity against human SF539 cell line
[6] = tested on: OVCAR-3; test: Cytotoxicity against human OVCAR-3 cell line
[7] = tested on: SN12C; test: Cytotoxicity against human SN12C cell line
[8] = tested on: MDA-MB-435; test: Cytotoxicity against human MDA-MB-435 cell line

Structure (SMILES): O=C1c2ccccc2-c2c1c1ccccc1c(=O)n2CCCn1ccnc1
- GI50 [1]: 1410 nM
- GI50 [2]: 1410 nM
- GI50 [3]: 2690 nM
- GI50 [4]: 790 nM
- GI50 [5]: 2340 nM
- GI50 [6]: 1.66 µM
- GI50 [7]: 1660 nM

Structure (SMILES): COc1cc2c3c(n(CCCN4CCSCC4)c(=O)c2cc1OC)-c1cc2c(cc1C3=O)OCO2
- GI50 [1]: 72400 nM
- GI50 [8]: > 100000 nM
- GI50 [2]: > 100000 nM
- GI50 [3]: 26300 nM
- GI50 [4]: 37200 nM
- GI50 [5]: 18200 nM
- GI50 [6]: 34.7 µM

Structure (SMILES): COc1cc2c3c(n(CCCNCCN4CCOCC4)c(=O)c2cc1OC)-c1cc2c(cc1C3=O)OCO2
- GI50 [1]: < 5 nM
- GI50 [8]: 1950 nM
- GI50 [2]: 603 nM
- GI50 [3]: < 5 nM
- GI50 [4]: 162 nM
- GI50 [5]: 550 nM
- GI50 [6]: 0.525 µM
- GI50 [7]: 1480 nM

Structure (SMILES): COc1cc2c3c(n(CCCN4CCN(CCO)CC4)c(=O)c2cc1OC)-c1cc2c(cc1C3=O)OCO2
- GI50 [1]: 2340 nM
- GI50 [8]: > 100000 nM
- GI50 [2]: 275 nM
- GI50 [3]: 9770 nM
- GI50 [4]: 1230 nM
- GI50 [5]: 1440 nM
- GI50 [6]: 15.1 µM
- GI50 [7]: > 100000 nM

Structure (SMILES): COc1cc2c3c(n(CCCN4CCCNCC4)c(=O)c2cc1OC)-c1cc2c(cc1C3=O)OCO2
- GI50 [1]: 214 nM
- GI50 [8]: 2630 nM
- GI50 [2]: 81 nM
- GI50 [3]: < 5 nM
- GI50 [4]: 457 nM
- GI50 [5]: 145 nM
- GI50 [6]: 5.01 µM
- GI50 [7]: 145 nM

Structure (SMILES): COc1cc2c3c(n(CCCNC4=NCCS4)c(=O)c2cc1OC)-c1cc2c(cc1C3=O)OCO2
- GI50 [1]: < 10 nM
- GI50 [8]: < 10 nM
- GI50 [2]: < 10 nM
- GI50 [3]: < 10 nM
- GI50 [4]: 14 nM
- GI50 [5]: < 10 nM
- GI50 [6]: 0.041 µM
- GI50 [7]: < 10 nM

Structure (SMILES): COc1cc2c3c(n(CCCN4CCN(C)CC4)c(=O)c2cc1OC)-c1cc2c(cc1C3=O)OCO2
- GI50 [1]: 1480 nM
- GI50 [8]: > 100000 nM
- GI50 [2]: 10700 nM
- GI50 [3]: 18200 nM
- GI50 [4]: 15100 nM
- GI50 [5]: 17800 nM
- GI50 [6]: 15.1 µM
- GI50 [7]: 11500 nM

Structure (SMILES): COc1cc2c3c(n(CCCn4ccnc4)c(=O)c2cc1OC)-c1cc2c(cc1C3=O)OCO2
- GI50 [1]: < 10 nM
- GI50 [8]: 20 nM
- GI50 [2]: < 10 nM
- GI50 [3]: < 10 nM
- GI50 [4]: < 10 nM
- GI50 [5]: 37 nM
- GI50 [6]: 0.085 µM
- GI50 [7]: < 10 nM

Structure (SMILES): COc1cc2c3c(n(CCCN4CCC(N)CC4)c(=O)c2cc1OC)-c1cc2c(cc1C3=O)OCO2
- GI50 [1]: 120 nM
- GI50 [8]: 1740 nM
- GI50 [2]: 182 nM
- GI50 [3]: 427 nM
- GI50 [4]: 1290 nM
- GI50 [5]: 100 nM
- GI50 [6]: 0.832 µM
- GI50 [7]: 257 nM

Structure (SMILES): COc1cc2c3c(n(CCCN4CCNCC4)c(=O)c2cc1OC)-c1cc2c(cc1C3=O)OCO2
- GI50 [1]: 575 nM
- GI50 [8]: 4570 nM
- GI50 [2]: 15 nM
- GI50 [3]: < 5 nM
- GI50 [4]: 1200 nM
- GI50 [5]: < 5 nM
- GI50 [6]: 2.04 µM
- GI50 [7]: 91 nM

Structure (SMILES): COc1cc2c3c(n(CCCn4cccn4)c(=O)c2cc1OC)-c1cc2c(cc1C3=O)OCO2
- GI50 [1]: 1990 nM
- GI50 [8]: 7080 nM
- GI50 [2]: 363 nM
- GI50 [3]: 447 nM
- GI50 [4]: 269 nM
- GI50 [5]: 398 nM
- GI50 [6]: 56.2 µM
- GI50 [7]: 316 nM

Structure (SMILES): COc1cc2c3c(n(CCCn4ccnc4)c(=O)c2cc1OC)-c1ccccc1C3=O
- GI50 [1]: < 10 nM
- GI50 [8]: 14 nM
- GI50 [2]: < 10 nM
- GI50 [3]: < 10 nM
- GI50 [4]: < 10 nM
- GI50 [5]: < 10 nM
- GI50 [6]: < 0.01 µM
- GI50 [7]: < 10 nM

Structure (SMILES): COc1cc2c3c(n(CCCN4CCCC(O)C4)c(=O)c2cc1OC)-c1cc2c(cc1C3=O)OCO2 (configuration not stated)
- GI50 [1]: < 5 nM
- GI50 [8]: 977 nM
- GI50 [2]: < 5 nM
- GI50 [3]: < 5 nM
- GI50 [4]: 5010 nM
- GI50 [5]: < 5 nM
- GI50 [6]: 5.75 µM
- GI50 [7]: 126 nM

Structure (SMILES): O=C1c2ccccc2-c2c1c1ccc([N+](=O)[O-])cc1c(=O)n2CCCn1ccnc1
- GI50 [1]: 274 nM
- GI50 [8]: 2170 nM
- GI50 [2]: 17 nM
- GI50 [3]: 190 nM
- GI50 [4]: 12 nM
- GI50 [5]: 16 nM
- GI50 [6]: 0.864 µM
- GI50 [7]: 15 nM

Structure (SMILES): COc1cc2c3c(n(CCCn4cncn4)c(=O)c2cc1OC)-c1cc2c(cc1C3=O)OCO2
- GI50 [1]: 1910 nM
- GI50 [8]: > 100000 nM
- GI50 [2]: 85 nM
- GI50 [3]: 79 nM
- GI50 [4]: < 10 nM
- GI50 [5]: 288 nM
- GI50 [6]: 61.7 µM
- GI50 [7]: 85 nM

Structure (SMILES): COc1cc2c3c(n(C)c(=O)c2cc1OC)-c1cc2c(cc1C3=O)OCO2
- GI50 [1]: 35000 nM
- GI50 [8]: 96000 nM
- GI50 [2]: 37000 nM
- GI50 [3]: 1300 nM
- GI50 [4]: 4200 nM
- GI50 [7]: 68000 nM

Structure (SMILES): COc1cc2c3c(n(CCCN4CCOCC4)c(=O)c2cc1OC)-c1cc2c(cc1C3=O)OCO2 [INDOTECAN]
- GI50 [1]: 1150 nM
- GI50 [8]: 67600 nM
- GI50 [2]: 155 nM
- GI50 [3]: 1780 nM
- GI50 [4]: 30 nM
- GI50 [5]: 40 nM
- GI50 [6]: 74.1 µM
- GI50 [7]: 813 nM
